Test results reported in article PMC7868322, “Rational Design of A Novel Small-Molecule HIV-1 Inactivator Targeting Both gp120 and gp41 of HIV-1” (Frontiers in Pharmacology, 2021).
pEC50, pIC50: −log10 of the molar value. Read-outs that look alike come from different tables or passages of the source.

Columns and labels:
[1] = system: HIV-1 IIIB (X4); assay: Inhibition of HIV-1 infection (p24 ELISA); assay type: cell-based
[2] = target: T1, HIV-1 HXB2 gp120 (Human immunodeficiency virus type 1 group M subtype B, UniProt P04578); assay: Flow cytometry competition with gp120 CD4bs-targeting mAbs on CHO-WT cells; assay type: binding; settings: 100 µM
T1 construct: CHO-WT cells expressing HIV-1 HXB2 gp120; host or cells: CHO-WT cells
Procedure: Flow cytometry was used to detect compounds that competed with gp120 CD4bs-targeting mAbs for binding to gp120. In brief, 100 µL of FD016 at a concentration of 100 µM or PBS was first incubated with CHO-WT cells expressing HIV-1 HXB2 gp120 for 30 min at room temperature, and then gp120 CD4bs-targeting mAbs (5 μg/mL, 100 µL) and FITC-labeled goat anti-human secondary antibody were added successively. After three washes, the cells were analyzed with flow cytometry. ELISA was carried out to detect the activity of compounds that inhibit the binding of soluble CD4 (sCD4) or gp120 CD4bs-targeting mAbs to gp120 as previously described ([Si et al., 2004]; [Curreli et al., 2014]). Briefly, for sCD4 and gp120 binding, 50 µL of HIV-1 IIIB gp120 at 0.5 μg/mL was captured on polystyrene plate coated with sheep anti-gp120 antibody D7324 (Aalto Bio Reagents). sCD4 (ImmunoDiagnostics, Inc.) at 200 ng/mL was then added in the presence of an equal volume of different concentrations of compounds or PBS and incubated at 37°C for 1 h. […] After adding 3,3′,5,5′-tetramethylbenzidine chromogen substrate and sulfuric acid, the absorbance at 450 nm (A450) was recorded using a Microplate Reader (Tecan, Männedorf, Switzerland).

[3] = system: HIV-1 IIIB; assay: Inactivation of cell-free HIV-1 virions (PEG-6000 precipitation, p24 ELISA); assay type: cell-based; settings: Human immunodeficiency virus 1, IIIB virus inactivation
[4] = system: HIV-1 Bal; assay: as above; assay type: cell-based
[5] = Cytotoxicity (CCK-8); assay type: cell-based; settings: human
Procedure: Cell viability was detected following the instructions in the protocol provided in the cell counting kit-8 (CCK-8; Dojindo Molecular Technologies, Gaithersburg, MD, USA) as previously described ([Yang et al., 2018]). Briefly, MT-2 cells and CEMx174 517 5.25 M7 cells (3 × 10^4/well) were incubated with compounds at different concentrations at 37°C for 48 h. Then, the supernatant was discarded, and CCK8 diluted 10 times with fresh medium was added (200 μL/well). After 2–6 h of incubation at 37°C, the absorbance at 450 nm was measured using a microplate reader (Tecan, Männedorf, Switzerland).

[6] = system: HIV-1 Bal (R5); assay: Inhibition of HIV-1 infection (p24 ELISA); assay type: cell-based
[7] = target: T2, 6HB formation between N36 and C34-biotin (Human immunodeficiency virus type 1 group M subtype B, UniProt P04578); assay: ELISA inhibition of six-helix bundle formation; assay type: biochemical, HIV-1; settings: IC50, inhibition of 6HB formation between N36 and C34-biotin, peptides 0.5 μM final
T2 construct: preincubated with N36 peptide (2 μM, 50 μL) at 37°C for 1 h; purchased NIH AIDS Reagent Program
Procedure: An inhibitor (compound or C-peptide control) at graded concentrations was preincubated with N36 peptide (2 μM, 50 μL) at 37°C for 1 h. […] Subsequently, 50 μL of the mixture were added to the wells of the NC-1-coated plate, followed by incubation for 1 h. Then, HRP-labeled streptavidin and the substrate were added sequentially. The optical density at 450 nm was measured using a microplate reader (Tecan, Männedorf, Switzerland).

[8] = system: SM145/GS 016 (C, R5); assay: Inactivation of cell-free HIV-1 clinical virus; assay type: cell-based; settings: inactivation of cell-free virions, means ± SD
[9] = system: PBL288 (C, R5); assay: Inactivation of cell-free HIV-1 clinical virus; assay type: cell-based; settings: inactivation of cell-free virions, means ± SD
[10] = system: KNH1135 (A, R5); assay: microbe, parasite or virus in culture; assay type: cell-based, HIV-1; settings: inactivation of cell-free virions, clinical virus KNH1135 (A, R5); means ± SD
[11] = system: 92/TH/009 (A/E, R5); assay: Inactivation of cell-free HIV-1 clinical virus; assay type: cell-based; settings: inactivation of cell-free virions, means ± SD
[12] = Human immunodeficiency virus 1, MT2, laboratory-adapted strain IIIB, MT-2 cells, p24 ELISA, read-out: IC50, inhibition of HIV-1 IIIB infection
[13] = CEMx174 5.25 M7 cells, read-out: CC50, CEMx174 5.25 M7 cell
[14] = MT-2 cells, read-out: CC50, MT-2 cell
[15] = Human immunodeficiency virus 1, laboratory-adapted strain Bal, CEMx174 5.25 M7 cells, p24 ELISA, read-out: IC50, inhibition of HIV-1 Bal infection

Compound `CC1(C)CC(NC(=O)C(=O)Nc2ccc(Cl)c(F)c2)CC(C)(C)N1` [FD016, N^1-(4-Chloro-3-Fluorophenyl)-N^2-(2,2,6,6-Tetramethylpiperidin-4-yl) Oxalamide] has a pIC50 [1, 12] of 5.23, a pIC50 ([1]; Human immunodeficiency virus 1, IIIB, combination experiment, alone, read-out: IC50 of FD016, Alone) of 5.36 and a pIC50 ([1]; Human immunodeficiency virus 1, IIIB, in mixture with FD017, read-out: IC50 of FD016, In mixture) of 5.92. For the same compound, the “Inhibition of gp120 CD4bs mAbs (B12 and N6) binding to gp120-expressing CHO cells” value [2] was “could inhibit the interaction of gp120 and CD4bs-targeting mAbs effectively”, the pEC50 ([3]; alone, read-out: EC50 of FD016, Alone) was less than 5.00 and the pEC50 ([3]; in mixture with FD017, read-out: EC50 of FD016, In mixture) was 5.60. It also gave a pEC50 ([4]; Human immunodeficiency virus 1, Bal virus inactivation, alone, read-out: EC50 of FD016, Alone) of less than 4.70, a pEC50 ([4]; Human immunodeficiency virus 1, Bal virus inactivation, in mixture with FD017, read-out: EC50 of FD016, In mixture) of 5.58 and a CC50 at 48 h [5, 13] greater than 50000 nM. It also gave a CC50 at 48 h [5, 14] greater than 50000 nM, a pIC50 ([6]; Human immunodeficiency virus 1, Bal, combination experiment, alone, read-out: IC50 of FD016, Alone) of 4.73 and a pIC50 ([6]; Human immunodeficiency virus 1, Bal, in mixture with FD017, read-out: IC50 of FD016, In mixture) of 5.74. The pIC50 [6, 15] was 4.77.

In the case of `O=C(O)c1cc(-c2ccc(/C=C3\SC(=S)N(CCc4ccc(O)cc4)C3=O)o2)ccc1Cl` [FD017, (Z)-2-Chloro-5-(5-((3-(4-Hydroxyphenethyl)-4-oxo-2-Thioxothiazolidin-5-ylidene)methyl)furan-2-yl)benzoic Acid], the pIC50 [7] was 5.87, the pIC50 [1, 12] was 5.84 and the pIC50 ([1]; Human immunodeficiency virus 1, IIIB, combination experiment, alone, read-out: IC50 of FD017, Alone) was 5.74. For the same compound, the pIC50 ([1]; Human immunodeficiency virus 1, IIIB, in mixture with FD016, read-out: IC50 of FD017, In mixture) was 6.23, the pEC50 ([3]; alone, read-out: EC50 of FD017, Alone) was less than 5.00 and the pEC50 ([3]; in mixture with FD016, read-out: EC50 of FD017, In mixture) was 5.92. It also gave a pEC50 ([4]; Human immunodeficiency virus 1, Bal virus inactivation, alone, read-out: EC50 of FD017, Alone) of less than 5.30, a pEC50 ([4]; Human immunodeficiency virus 1, Bal virus inactivation, in mixture with FD016, read-out: EC50 of FD017, In mixture) of 5.86 and a CC50 at 48 h [5, 13] of 39800 nM. For the same compound, the CC50 at 48 h [5, 14] was 47900 nM, the pIC50 ([6]; Human immunodeficiency virus 1, Bal, combination experiment, alone, read-out: IC50 of FD017, Alone) was 5.83 and the pIC50 ([6]; Human immunodeficiency virus 1, Bal, in mixture with FD016, read-out: IC50 of FD017, In mixture) was 6.04. The pIC50 [6, 15] was 6.08.

With Maraviroc [reference compound] the pEC50 [8] was less than 6.30, the pEC50 ([4]; cell-free virions, 1 h at 4°C, PEG-6000 precipitation, read-out: EC50, inactivation of HIV-1 Bal) was less than 6.30 and the pEC50 [9] was less than 6.30. It also gave a pEC50 [10] of less than 6.30, a pEC50 [11] of less than 6.30 and a pIC50 ([6]; laboratory-adapted strain Bal, CEMx174 5.25 M7 cells, p24 ELISA, read-out: IC50, inhibition of HIV-1 Bal infection) of 9.00.
